The values that follow come from US11925633B2, “Drug for preventing and/or treating dementia” (NATIONAL CEREBRAL AND CARDIOVASCULAR CENTER, priority 2016, dated 2024).

Where two headings read alike, the source gives them in different places.

Series [1] deals with APP-SwDI transgenic mice. Nature of the series: Immunohistochemistry for Aβ deposition on the cerebral blood vessel wall (hippocampus region). The format is in vivo, mouse. The following applies: 8-month-old mice, drug-containing feed from 4-week-old to 8-month-old; compared to APP-SwDI mice on normal feed. As for the experimental part: The cilostazol-containing feed, the taxifolin-containing feed, and the feed containing cilostazol and taxifolin were administered from 4-week-old to 8-month-old. The concentration of cilostazol in the cilostazol-containing feed was 0.3 wt %, and the concentration of taxifolin in the taxifolin-containing feed was 3 wt %. The concentration of cilostazol and the concentration of taxifolin in the feed containing cilostazol and taxifolin were respectively 0.3 wt % and 3 wt %. All the APP-SwDI transgenic mice used were homozygous male mice. The 4-week-old APP-SwDI transgenic mice are considered to be in the initial stage of accumulation of Aβ in the brain blood vessel, i.e., the initial stage of cerebral amyloid angiopathy, and neuronal loss is considered to be not progressing much in this stage. The brain of an 8-month-old APP-SwDI transgenic mice was perfusion fixed using 4% para-formaldehyde, the removed brain was dehydration-treated for a whole day. A paraffin block of the fixed brain tissue was prepared, and the paraffin block was sliced in 6 microns by microtome. […] The hippocampus region was traced in a section which was cut 1 mm outside the midline, and the percentage of the Aβ accumulation area in the region of interest was measured by using image analysis software ImageJ (National Institutes of Health. USA). […]

Series [2] deals with APP-SwDI transgenic mice. Put plainly: Hair loss score (fighting). The format is in vivo, mouse. The following applies: 13-month-old mice; compared to APP-SwDI mice on normal feed. From the text:
Hair loss occurs when mice fight. Thus, the extent of hair loss of each mouse was described in 4 grades of Grade: 0-3 and taken as a hair loss score. Almost normal state is Grade: 0 and hair loss over nearly whole body is Grade: 3. Less than 50% of the whole body surface was classified as Grade: 1 and not less than 50% was classified as Grade: 2.
The information of mice was concealed and two evaluators independently evaluated the hair loss score. Mean of each evaluation was taken as the hair loss score of the mice.
Error bars show standard error.

In series [3] the test system is APP-SwDI transgenic mice. Put plainly: Carbon dioxide gas inhalation test (cerebral blood flow, laser speckle blood flow imager). Format: in vivo, mouse. The following applies: 12-month-old mice; for cerebral blood flow increase rate after 5% CO2 supply: feed from 4-week-old to 12-month-old, compared to APP-SwDI mice on normal feed; for time course of the cerebral blood flow increase rate after 5% CO2 supply: measured for 5 min after start of 5% CO2; for significance of the difference in cerebral blood flow increase rate versus normal feed group (repeated measurement and variance analysis): versus APP-SwDI mice on normal feed. The protocol: Analysis was performed by using 12-month-old C57BL/6J mice administered with a normal feed (n=4), APP-SwDI transgenic mice administered with a normal feed (n=10), APP-SwDI transgenic mice administered with a cilostazol-containing feed (n=4), APP-SwDI transgenic mice administered with a taxifolin-containing feed (n=5), and APP-SwDI transgenic mice administered with a feed containing cilostazol and taxifolin (n=7), totaling 30 mice. The feeds containing cilostazol, taxifolin, or cilostazol and taxifolin were administered from 4-week-old to 12-month-old. The concentration of cilostazol in the cilostazol-containing feed was 0.3 wt % and the concentration of taxifolin in the taxifolin-containing feed was 3 wt %. All the APP-SwDI transgenic mice used were homozygous male mice. The mice were anesthetized by intraperitoneal injection of α-chloralose and urethane. Then, endotracheal intubation was performed and the baseline of the cerebral blood flow was measured. Thereafter, 5% CO2 was supplied, and the cerebral blood flow was sequentially measured for 5 min. Relative increase rate was measured from the changes in the cerebral blood flow between the baseline and after 5% CO2 supply. The cerebral blood flow was measured by a laser speckle blood flow imager (OZ-2, OMEGAWAVE, INC.). FIG. 2 is a graph showing mean of relative increase rate of the cerebral blood flow after supply of 5% CO2 in the mice of each group. […] Error bars show standard error.

The nature of series [4]: Blood concentration after administration of the feed containing cilostazol and taxifolin.
Protocol: (§1) In the “APP-SwDI transgenic mice administrated with a feed containing cilostazol and taxifolin (n=3)”, as mentioned above, the blood concentration of this mouse was measured after administration of the feed containing cilostazol and taxifolin.
Series [5] concerns APP-SwDI transgenic mice. Put plainly: Survival curve (cumulative survival rate). Format: in vivo, mouse. As to conditions: observation within 500 days after birth; slaughter not included. From the text:
1, 2014 to Nov. 30, 2015, were used to plot and analyze a survival curve of the mice.

Series [6] concerns APP-SwDI transgenic mice. Nature of the series: Water maze test (Morris water maze, with probe test). The format is in vivo, mouse. As to conditions: 8-month-old mice; for residence time in Zone-1 in the probe test (visuospatial memory): fifth day, platform removed, 60 seconds; for swimming time to reach the platform (visuospatial memory): first day to fourth day, 4 trials per day. The protocol: The cilostazol-containing feed, the taxifolin-containing feed, and the feed containing cilostazol and taxifolin were administered from 4-week-old to 8-month-old. The concentration of cilostazol in the cilostazol-containing feed was 0.3 wt %, and the concentration of taxifolin in the taxifolin-containing feed was 3 wt %. The concentration of cilostazol and the concentration of taxifolin in the feed containing cilostazol and taxifolin were respectively 0.3 wt % and 3 wt %. All the APP-SwDI transgenic mice used were homozygous male mice. The water maze test is a test for evaluating the visuospatial cognitive ability of mouse by utilizing the habit of avoiding water and escaping therefrom. The water maze used in this experiment was Morris water maze manufactured by Brain Science Idea, having a circular pool of a water tank entirely painted black with inner diameter 120 cm, wall height 30 cm. One transparent acrylic circular platform for escape with diameter 10 cm, height 10 cm was set at 30 cm from the center of the pool and 30 cm from the periphery. Clues such as poster, photograph and the like were arranged on the wall so that the mice could memorize various spatial arrangements in the surroundings, and the locations of these clues were always unchanged during the experiment. The pool was filled with water to a depth of 11 cm, and a platform was installed at about 1 cm below the water surface as in FIG. 3(A). In all tests, Zone-2 in FIG. 3(B) was set as a start position. Zone-1 to Zone-4 show quadrant regions in the circular pool. The mice were gently placed on the water surface while facing the wall of the pool so that they could not see the location of the platform. The tests were performed from the first day to the fourth day, 4 trials per day. In each trial, the total swimming distance and the time required for reaching the platform (swimming time) were measured. […] On the fifth day, the mice were made to swim for 60 seconds with the platform removed from the pool (probe test). In the test, the residence time in Zone-1 where the goal was placed from the first day to the fourth day was measured. […] Error bars show standard error. […] Error bars show standard error.

In series [7] the test system is APP-SwDI transgenic mice. Nature of the series: Y-maze test (alternation response rate). The format is in vivo, mouse. As to conditions: 13-month-old mice, feed from 4-week-old to 13-month-old; test for 8 minutes. The protocol: The cilostazol-containing feed, the taxifolin-containing feed, and the feed containing cilostazol and taxifolin were administered from 4-week-old to 13-month-old. The concentration of cilostazol in the cilostazol-containing feed was 0.3 wt %, and the concentration of taxifolin in the taxifolin-containing feed was 3 wt %. The concentration of cilostazol and the concentration of taxifolin in the feed containing cilostazol and taxifolin were respectively 0.3 wt % and 3 wt %. All the APP-SwDI transgenic mice used were homozygous male mice. In the Y-maze test, according to the general practice method, the alternation response rate was measured from the results of the test for 8 minutes. […] FIG. 7 is a graph showing an average alternation response rate of the mice of each group. Error bars show standard error.

The subject of the next series is amyloid beta. As to conditions: administration of cilostazol; non-patent documents 1, 2; cited from earlier work.
The conditions of series [8]: administration of cilostazol; non-patent documents 1, 2; cited from earlier work.
For series [9] the following is noted: mouse, in vivo.
Protocol: as §1
The conditions of series [10]: administration of cilostazol; cilostazol package insert; cited from earlier work.
The subject of series [11] is APP-SwDI transgenic mice. The following applies: compared to APP-SwDI mice on control feed; non-patent document 3; cited from earlier work.

`O=C1c2c(O)cc(O)cc2O[C@H](c2ccc(O)c(O)c2)[C@H]1O` [taxifolin]: in the series on APP-SwDI transgenic mice [1], the “intracerebral Aβ accumulation amount” value was “significant decrease”. Besides, the “hair loss score (Grade 0-3)” value in the series with APP-SwDI transgenic mice [2] was “clearly severe hair loss”. In addition, in the series with APP-SwDI transgenic mice [3], the “cerebral blood flow increase rate after 5% CO2 supply” value is “increased”; the “time course of the cerebral blood flow increase rate after 5% CO2 supply” value is “rapidly increased after 5% CO2 supply”; the “significance of the difference in cerebral blood flow increase rate versus normal feed group (repeated measurement and variance analysis)” value is listed as “a significant difference was absent”. Also, the “presence in the blood (compound or its metabolite)” value in [4] is on record as “detected in the blood”. The “death of mice (cumulative survival rate)” value with APP-SwDI transgenic mice [5] was “died clearly more than other mice”. In the series on APP-SwDI transgenic mice [6], the “residence time in Zone-1 in the probe test (visuospatial memory)” value is “the same results as in the C57BL/6J mouse” and the “swimming time to reach the platform (visuospatial memory)” value was “the same results as in the C57BL/6J mouse”. Also, the “alternation response rate (working memory)” value with APP-SwDI transgenic mice [7] is “significant improvement was not observed”.

Take `O=C1CCc2cc(OCCCCc3nnnn3C3CCCCC3)ccc2N1` [cilostazol, 6-[4-(1-cyclohexyl-1H-tetrazol-5-yl)butoxy]-3,4-dihydrocarbostyril]: the “intracerebral accumulation of amyloid beta” value in the series with amyloid beta was “suppressed”. For the same molecule, the “intracerebral Aβ accumulation amount” value in the series on APP-SwDI transgenic mice [1] is given as “significant decrease”. Besides, the “reduction of cognitive function” value in series [8] is listed as “suppressed”. The “presence in the blood (compound or its metabolite)” value in [9] is reported as “detected in the blood”. In series [10], the “cerebral blood flow in the vertebral artery, internal carotid artery, cerebral cortex, hypothalamus and the like” value was “increases”. In the series on APP-SwDI transgenic mice [3], the “cerebral blood flow increase rate after 5% CO2 supply” value was “increased”; the “time course of the cerebral blood flow increase rate after 5% CO2 supply” value is “increased after a certain period of time after 5% CO2 supply”; the “significance of the difference in cerebral blood flow increase rate versus normal feed group (repeated measurement and variance analysis)” value was “a significant difference was absent”. Further, in the series with APP-SwDI transgenic mice [6], the “residence time in Zone-1 in the probe test (visuospatial memory)” value is recorded as “visuospatial memory disorder improving effect of cilostazol was considered to be limited” and the “swimming time to reach the platform (visuospatial memory)” value is recorded as “visuospatial memory disorder improving effect of cilostazol was considered to be limited”. For the same molecule, the “alternation response in the Y-maze test” value with APP-SwDI transgenic mice [11] is “increased”.
